Data taken from US20240366586A1, “METHODS AND AGENTS FOR MODULATING THE IMMUNE RESPONSE” (The Regents of the University of California, priority 2021, published 2024).

How the values were obtained:
lichen planus = test: Treatment example: patient with lichen planus; assay type: in vivo, human; conditions: combination with crisaborole, both administered topically
Description: A patient with lichen planus is treated with a combination of N-(2-furylmethyl)-N-[(6-methoxy-2-oxo-1H-quinolin-3-yl)methyl]-4-methyl-benzamide (Compound I-1) and crisaborole, both administered topically.

psoriasis = test: Treatment example: patient with psoriasis; assay type: in vivo, human; conditions: topical formulation
Description: A patient with psoriasis is treated with a topical formulation of N-(2-furylmethyl)-N-[(6-methoxy-2-oxo-1H-quinolin-3-yl)methyl]-4-methyl-benzamide (Compound I-1).

Il12b [1] = test: Dual-fluorescence reporter macrophage cell line screen, lipopolysaccharide-stimulated: chromatinized Il12b-eGFP versus minimal Il12b-DsRed reporter; assay type: cell-based; conditions: lipopolysaccharide-stimulated dual-fluorescence reporter macrophage cell line
Description: We hypothesized that molecules that inhibit the “chromatinized” Il12b reporter but not the “minimal” Il12b reporter would offer a greater degree of Il12b inhibition selectivity.
We generated a dual-fluorescence reporter macrophage cell line having both a [Il12b]-[eGFP] chromatin-based construct and a [Il12b]-[DSred] plasmid vector. FIG. 3. We then stimulated an […] response in the cell line using lipopolysaccharide, an activator of Il12b expression, and tested a library of over 60,000 known and unknown (i.e., undescribed in the literature) small-molecule compounds.
Additional compounds in Formulas (I)-(IV) were screened following the same procedure as described above, with eGFP fluorescence as a readout for inhibition of IL12b.

chronic eczema = test: Treatment example: patient with chronic eczema; assay type: in vivo, human; conditions: topical formulation
Il12b [2] = test: RNA-Seq / ATAC-Seq of lipopolysaccharide-induced genes in treated macrophages; assay type: cell-based; conditions: for rank of Il12b among the most strongly inhibited lipopolysaccharide-induced genes: genes with RPKM>4 and FC>10, ranked by fold change (Max RPKM with/without compound)
Description: Our screening experiment identified as compounds that […]. Using ATAC-Seq and RNA-Seq analyses, we confirmed that the screen indeed identified hits that work by affecting chromatin, and confirmed that β adrenergic agonists, (and in particular β2 adrenergic agonists) are indeed exquisitely selective inhibitors of Il12b gene expression.
(§1) The inhibition of Il12b by β agonists occurs upon stimulation of macrophages with other inflammatory stimuli, including CpG DNA, double stranded RNA, and imiquimod. We confirmed that the cAMP/PKA pathway, but not the exchange factor directly activated by cAMP (EPAC) pathway, was largely responsible for mediating the Il12b suppression by 0-agonists.
FIG. 7B depicts a fold change box plot in samples treated with UK17 (3-fluoro-N′-[(5-nitro-2-thienyl)methylene]benzohydrazide (CID #6895129)), classifying lipopolysaccharide-induced genes by gene-regulation cluster as previously described in Tong A. et al., A Stringent Systems Approach Uncovers Gene-Specific Mechanisms Regulating Inflammation, Cell 165 165-179 (2016). Box plots indicate the distribution of fold change values for each cluster. Red lines are drawn at 1 and −1, indicating a 2-fold up or down-regulation of genes. Il12b is labeled in red.

vitiligo = test: Treatment example: patient with vitiligo; assay type: in vivo, human; conditions: topical formulation
Description: A patient with vitiligo is treated with a topical formulation of 11-(5-hydroxy-2-nitrobenzyl)-7,11-diazatricyclo[7.3.1.0˜2,7˜]trideca-2,4-dien-6-one (Compound III-1).

Behçet's disease = test: Treatment example: patient with Behçet's disease; assay type: in vivo, human; conditions: topical formulation
alopecia = test: Treatment example: patient with alopecia; assay type: in vivo, human; conditions: topical formulation also comprising apremilast
[3] = test system: imiquimod-induced psoriasiform dermatitis; test: Imiquimod-induced psoriasiform dermatitis model, PASI clinical scoring; assay type: in vivo; conditions: WT mice, topical imiquimod, daily intraperitoneal injection, vs saline/PBS
Description: FIG. 16 depicts histology of WT mice or b1/b2 KO mice 5 days after topically applying imiquimod to their skin. Histology confirms greater thickening and scale of the skin in b1/b2 KO mice.
FIG. 19 depicts WT mice given intraperitoneal injection of the b2 selective adrenergic agonist clenbuterol or vehicle control (saline) daily in mice given topical imiquimod to induce psoriasiform dermatitis.
FIG. 20 depicts the PASI clinical scoring PBS-treated WT mice versus clenbuterol-treated WT mice.

Il12b [4] = test: Il12b expression in human macrophages treated with PGE2 (RNA-Seq, RPKM vs DMSO); assay type: cell-based
Description: as §1
FIG. 10 depicts a heatmap of percent expression of RPKMs as a percent of the maximum RPKM within the DMSO sample for genes with RPKMs>3 and FC>10 in at least one DMSO timepoint. The heatmap represents that for the averaged samples for each gene between Donor 0 IL34 and Donor 0 MCSF. In the left heatmap, red indicates percent expression equal to or higher than 100%. DMSO and PGE2 samples are indicated as such for timepoints 0 hr, 1 hr, 2 hr, and 6 hr. […] Here, red represents a positive difference equal to or over 100%, indicating induction, and blue representing a negative difference equal to or less than −100%, indicating inhibition. (n=2).
FIG. 11 depicts log 2 of the fold change of RPKMS after PGE2-treatment and those after DMSO treatment are shown in this scatter plot for genes with RPKMs>3 and FC>10 in at least on DMSO timepoint and this graph represents the 6-hour timepoint. […]

COc1ccc2[nH]c(=O)c(CN(Cc3ccco3)C(=O)c3ccc(C)cc3)cc2c1 [Compound I-1, N-(2-furylmethyl)-N-[(6-methoxy-2-oxo-1H-quinolin-3-yl)methyl]-4-methyl-benzamide]
clinical outcome (lichen planus): Resolution of symptoms
clinical outcome (psoriasis): Resolution of symptoms

O=C(NN=Cc1ccc([N+](=O)[O-])s1)c1cccc(F)c1 [II-1, 3-fluoro-N′-[(5-nitro-2-thienyl)methylene]benzohydrazide]
selective inhibition of the chromatinized Il12b reporter (eGFP) but not the minimal reporter (DsRed) (Il12b [1]): selective inhibitors of chromatinized Il12b
selective inhibition of the chromatinized Il12b reporter (eGFP) but not the minimal reporter (DsRed) (Il12b [1]; listed as UK17): selective for inhibition of chromatinized Il12b
clinical outcome (chronic eczema): Resolution of symptoms
rank of Il12b among the most strongly inhibited lipopolysaccharide-induced genes (Il12b [2]): ≤ 20

O=c1cccc2n1CC1CC2CN(Cc2cc(O)ccc2[N+](=O)[O-])C1 (stereo not drawn) [III-1, 11-(5-hydroxy-2-nitrobenzyl)-7,11-diazatricyclo[7.3.1.0˜2,7˜]trideca-2,4-dien-6-one]
clinical outcome (vitiligo): Resolution of vitiligo
selective inhibition of the chromatinized Il12b reporter (eGFP) but not the minimal reporter (DsRed) (Il12b [1]): selective inhibitors of chromatinized Il12b

COc1ccc(Br)cc1/C=C/C(=O)c1ccc(OC)c(OC)c1 [IV-1, 3-(5-bromo-2-methoxyphenyl)-1-(3,4-dimethoxyphenyl)-2-propen-1-one]
selective inhibition of the chromatinized Il12b reporter (eGFP) but not the minimal reporter (DsRed) (Il12b [1]): selective inhibitors of chromatinized Il12b
clinical outcome (Behçet's disease): Resolution of disease
rank of Il12b among the most strongly inhibited lipopolysaccharide-induced genes (Il12b [2]): ≤ 20
clinical outcome (alopecia): Resolution of alopecia

CC(C)(C)NCC(O)c1cc(Cl)c(N)c(Cl)c1 (stereo not drawn) [clenbuterol]
PASI clinical score [3]: reduction in score

CCCCC[C@H](O)/C=C/[C@H]1[C@H](O)CC(=O)[C@@H]1C/C=C\CCCC(=O)O [prostaglandin E2, reference compound]
selective inhibition of Il12b in human macrophages (Il12b [4]): exquisitely selective inhibitor of Il12b
selective inhibition of Il12b gene expression (Il12b [2]; RNA-Seq and ATAC-Seq analyses, macrophages): selectively inhibit IL12b expression
